These results are taken from patent publication US20080161419A1, “Prophylactic Antimigraine Agents” (priority 2004, published 2008).

Test [1] relates to migraine model of guinea pig. Description: Preventive effect in guinea pig migraine model (leaked protein from dural blood vessel caused by 5-HT). In kind it is in vivo. The following applies: for leakage of the protein: 10 mg/kg or 30 mg/kg of oral administration; for amount of leaked protein (fluorescence intensity per mg dura): 3 mg/kg, intraperitoneal administration, 5-HT i.v. The protocol: In this test system, migraine preventive effect was evaluated by measuring this leaked protein in the presence of a compound to be tested, and this was carried out by partially modifying the method described in Rachel A. Spokes and Vicki C. Middlefell, European Journal of Pharmacology (1995) 281, 75-79.
Hartley male guinea pig (250-350 g) was anesthetized by peritoneal administration (i.p.) of urethane (1.5 g/kg). By applying simple cannulation to a saphena, 50 mg/kg of a fluorescent protein (FITC-BSA) was intravenously administered (i.v.) and 5 minutes thereafter, physiological saline or […] of 5-HT was intravenously administered. By carrying out perfusion with physiological saline 15 minutes thereafter, blood was washed out. […] By detaching the skull, dura mater was took out and incubated at 37° C. for 16 hours in an Eppendorf tube in the presence of physiological saline of pH 11. Centrifugation was carried out, and the supernatant was dispensed into a plate. Fluorescence intensity was measured using a fluorescence plate reader (excitation wavelength 485 nm, […] 530 nm). By measuring dura mater weight, fluorescence intensity per mg dural protein was calculated.
Values of the fluorescence intensity measured at the time of the administration of each compound and at the time of no administration are shown in FIG. 1 to FIG. 4. […] The control indicates fluorescence intensity at the time of no addition of 5-HT, namely the reference value.

The target of test [2] is T1, human 5-HT2B receptor (Homo sapiens, UniProt P41595).
T1 construct: expressed in transfected cells; host or cells: HEK293-EBNA
In words: Binding test of 5-HT2B receptor. As to conditions: [3H]Mesulergine, human 5-HT2B receptor expressing HEK293-EBNA cell membrane.
Description: HEK293-ENBA cell was used as the gene transferring cell.
Cultured HEK293-EBNA cells expressing human 5-HT2B receptor were washed with PBS(−). The cells were scraped in the presence of PBS(−), and the cells were recovered by centrifugation (1,000 rpm, 10 min, 4° C.). They were homogenized using Polytron (PTA 10-TS) in the presence of 5 mM Tris-HCl (pH 7.4) buffer and centrifuged (40,000×g, 10 min, 4° C.). They were suspended using a homogenizer in the presence of 50 mM Tris-HCl (pH 7.4) buffer. They were subjected to centrifugation (40,000×g, 10 min. 4° C.), suspended in 50 mM Tris-HCl (H 7.4) and stored at −80° C.
A total volume of 500 μl containing 50 mM Tris-HCl-4 mM CaCl2 (pH 7.4) buffer, the human 5-HT2B receptor expressing HEK293-EBNA cell membrane preparation and a radio ligand [^3H]Mesulergine (3.1 TBq/mmol) was incubated at 25° C. for 1 hour. The compound was dissolved in 100%1/DMSO and diluted to respective concentrations. Nonspecific binding was defined as the binding quantity in the presence of 1 μM ritanserin, and the result of subtracting the nonspecific binding quantity from the total binding quantity was defined as the specific binding quantity. […] The glass filter was soaked in 5 ml of a liquid scintillator (Aquasol-2) and the radioactivity was measured using a liquid scintillation counter. […]

The target in test [3] is T2, human 5-HT7 receptor (Homo sapiens, UniProt P34969).
T2 construct: expressed in transfected cells; host or cells: CHO
In words: Binding test of 5-HT7 receptor. As to conditions: [3H]5-HT, human 5-HT7 receptor expressing CHO cell membrane.
Description: Cultured CHO cells expressing human 5-HT7 receptor were washed with PBS(−). The cells were scraped in the presence of PBS(−), and the cells were recovered by centrifugation (1,000 rpm, 10 min, 4° C.). They were homogenized using Polytron (TA 10-TS) in the presence of 5 mM Tris-HCl (pH 7.4) buffer and centrifuged (40,000×g, 10 min, 4° C.). They were suspended using a homogenizer in the presence of 50 mM Tris-HCl (pH 7.4) buffer. They were subjected to centrifugation (40,000×g, 10 min, 4° C.), suspended in 50 mM Tris-HCl (pH 7.4) and stored at −80° C.
A total volume of 500 μl containing 50 mM Tris-HCl-4 mM CaCl2 (pH 7.4) buffer, the human 5-HT7 receptor expressing CHO cell membrane preparation and a radio ligand [^3H]5-HT (3.40 TBq/mmol) was incubated at 25° C. for 1 hour. The compound was dissolved in 100% DMSO and diluted to respective concentrations. Nonspecific binding was defined as the binding quantity in the presence of 10 μM metergoline, and the result of subtracting the nonspecific binding quantity from the total binding quantity was defined as the specific binding quantity. This was mixed with 4 ml of 50 mM Tris-HCl buffer (pH 7.4) and filtered under a reduced pressure using a GF/B glass filter, and the filter was washed (4 ml×3) with the same buffer. The glass filter was soaked in 5 ml of a liquid scintillator (Aquasol-2) and the radioactivity was measured using a liquid scintillation counter. Concentration of the compound which inhibits 50% of the receptor binding, IC50 value, was obtained by nonlinear regression analysis using SAS (ver. 6.11), and the Ki value which represents its affinity for the receptor was calculated using the formula of Cheng & Prussoff; Ki=IC50/(1+[L]/[Kd]) ([L]: ligand concentration, [Kd]: dissociation constant).

Test [4] has as its target T3, 5-HT1A receptor (Homo sapiens, UniProt P08908).
T3 sequence (P08908 1-422): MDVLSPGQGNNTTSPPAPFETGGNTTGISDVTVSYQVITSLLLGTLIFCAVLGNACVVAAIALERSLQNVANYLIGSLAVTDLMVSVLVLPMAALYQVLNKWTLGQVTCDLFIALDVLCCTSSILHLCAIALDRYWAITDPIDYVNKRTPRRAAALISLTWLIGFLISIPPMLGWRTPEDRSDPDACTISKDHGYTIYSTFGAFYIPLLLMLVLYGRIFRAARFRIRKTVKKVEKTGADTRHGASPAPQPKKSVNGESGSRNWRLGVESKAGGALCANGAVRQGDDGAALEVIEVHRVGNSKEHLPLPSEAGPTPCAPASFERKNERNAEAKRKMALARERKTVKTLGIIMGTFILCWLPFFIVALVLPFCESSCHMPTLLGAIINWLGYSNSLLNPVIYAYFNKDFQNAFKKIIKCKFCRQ
In words: Affinity for other receptors: 5-HT1A. Type of test: binding. An excerpt: (§1) Affinity of the compound of Preparation 3 for 5-HT1A, 5-HT1B, 5-HT2A, 5-HT2C, 5-HT3, 5-HT4, 5-HT6, α1, M1 and D2 receptors was verified using conventionally known techniques (Journal of Neurochemistry (1986) 47, 529-540; Molecular Pharmacology (1982) 21, 301-314; European Journal of Pharmacology (1985) 106, 539-546; Journal of Pharmacology Experimental Therapy (1992) 263, 1127-1132; British Journal of Pharmacology (1993) 109, 618-624; Molecular Pharmacology (1993) 43, 320-327; Molecular Pharmacology (1989) 35, 324-330; Cellular Molecular Neurobiology (1988) 8, 181-191; European Journal of Pharmacology (1988) 173, 177-182).

Test [5] addresses 5-HT1B receptor (Homo sapiens, UniProt P28222). Description: Affinity for other receptors: 5-HT1B. In kind it is binding.
Source text: as §1

Test [6] addresses 5-HT2A receptor (Homo sapiens, UniProt P28223). Description: Affinity for other receptors: 5-HT2A. In kind it is binding.
Source text: as §1

Test [7] addresses T4, 5-HT2C receptor (Homo sapiens, UniProt P28335).
T4 sequence (P28335 33-458): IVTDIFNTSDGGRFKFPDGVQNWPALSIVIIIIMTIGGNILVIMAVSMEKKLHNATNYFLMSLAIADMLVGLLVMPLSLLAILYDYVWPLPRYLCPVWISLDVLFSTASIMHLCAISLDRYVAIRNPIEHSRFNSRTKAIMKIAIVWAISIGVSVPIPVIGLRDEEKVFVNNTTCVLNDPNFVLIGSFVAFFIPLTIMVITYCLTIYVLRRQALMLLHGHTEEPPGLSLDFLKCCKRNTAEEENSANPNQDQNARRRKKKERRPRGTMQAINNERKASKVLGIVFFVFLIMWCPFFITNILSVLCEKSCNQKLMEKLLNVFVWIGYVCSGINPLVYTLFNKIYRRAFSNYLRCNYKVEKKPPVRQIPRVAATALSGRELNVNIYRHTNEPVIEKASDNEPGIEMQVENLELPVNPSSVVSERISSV
In words: Affinity for other receptors: 5-HT2C. Type of test: binding.
Source text: as §1

Test [8] deals with T5, 5-HT3 receptor (Homo sapiens, UniProt P46098).
T5 sequence (P46098 24-478): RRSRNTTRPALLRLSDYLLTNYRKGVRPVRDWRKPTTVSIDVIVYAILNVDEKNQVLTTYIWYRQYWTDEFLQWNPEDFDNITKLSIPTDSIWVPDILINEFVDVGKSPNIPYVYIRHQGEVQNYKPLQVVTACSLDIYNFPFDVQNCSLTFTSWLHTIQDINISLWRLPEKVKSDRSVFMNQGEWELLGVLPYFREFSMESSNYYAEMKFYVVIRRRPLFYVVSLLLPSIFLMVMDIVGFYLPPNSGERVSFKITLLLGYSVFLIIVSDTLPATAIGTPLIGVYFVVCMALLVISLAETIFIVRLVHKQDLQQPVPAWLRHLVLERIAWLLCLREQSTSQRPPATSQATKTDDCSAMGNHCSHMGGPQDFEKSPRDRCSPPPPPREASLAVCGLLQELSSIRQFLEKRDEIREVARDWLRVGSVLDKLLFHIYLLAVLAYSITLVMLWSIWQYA
In words: Affinity for other receptors: 5-HT3. In kind it is binding.
Source text: as §1

Test [9] has as its target 5-HT4 receptor (Homo sapiens, UniProt Q13639). Description: Affinity for other receptors: 5-HT4. In kind it is binding.
Source text: as §1

Test [10] addresses 5-HT6 receptor (Homo sapiens, UniProt P50406). Description: Affinity for other receptors: 5-HT6. In kind it is binding.
Source text: as §1

In test [11] the target is α1 receptor. In words: Affinity for other receptors: α1. In kind it is binding.
Source text: as §1

Test [12] deals with T6, M1 receptor (Homo sapiens, UniProt P11229).
T6 sequence (P11229 1-460): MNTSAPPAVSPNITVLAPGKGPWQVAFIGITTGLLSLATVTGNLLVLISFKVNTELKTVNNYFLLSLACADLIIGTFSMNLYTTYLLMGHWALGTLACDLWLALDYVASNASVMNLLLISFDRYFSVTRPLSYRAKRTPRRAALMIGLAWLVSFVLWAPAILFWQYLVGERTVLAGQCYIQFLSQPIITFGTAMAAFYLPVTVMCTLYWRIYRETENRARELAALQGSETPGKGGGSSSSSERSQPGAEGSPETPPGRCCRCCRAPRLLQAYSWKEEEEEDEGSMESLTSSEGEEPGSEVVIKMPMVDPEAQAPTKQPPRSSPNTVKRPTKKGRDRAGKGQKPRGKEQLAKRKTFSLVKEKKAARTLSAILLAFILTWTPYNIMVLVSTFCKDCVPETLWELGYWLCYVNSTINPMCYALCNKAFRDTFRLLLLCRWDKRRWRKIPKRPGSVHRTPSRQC
Description: Affinity for other receptors: M1. In kind it is binding.
Source text: as §1

Test [13] deals with D2 receptor (Homo sapiens, UniProt P14416). In words: Affinity for other receptors: D2. In kind it is binding.
Source text: as §1

Test [14] relates to 5-HT2B receptor. As to conditions: against 5-HT1A, 5-HT1B, 5-HT2A, 5-HT2C, 5-HT3, 5-HT6, 5-HT7, α1, M1 and D2 receptors; cited from earlier work.

T2 sequence (P34969 whole entry): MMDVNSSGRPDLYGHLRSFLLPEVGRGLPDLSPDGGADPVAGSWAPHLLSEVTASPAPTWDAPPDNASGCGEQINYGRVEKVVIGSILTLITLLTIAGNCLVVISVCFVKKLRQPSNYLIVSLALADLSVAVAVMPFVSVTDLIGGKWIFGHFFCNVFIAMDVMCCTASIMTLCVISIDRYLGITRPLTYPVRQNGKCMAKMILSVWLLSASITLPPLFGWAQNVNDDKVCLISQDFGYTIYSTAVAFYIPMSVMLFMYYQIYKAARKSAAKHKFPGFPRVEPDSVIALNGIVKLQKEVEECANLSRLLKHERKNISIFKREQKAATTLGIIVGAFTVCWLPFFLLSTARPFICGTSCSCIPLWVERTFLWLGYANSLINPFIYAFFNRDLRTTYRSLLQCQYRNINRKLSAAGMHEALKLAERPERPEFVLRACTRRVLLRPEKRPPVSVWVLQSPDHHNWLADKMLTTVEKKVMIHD
T1 sequence (P41595 whole entry): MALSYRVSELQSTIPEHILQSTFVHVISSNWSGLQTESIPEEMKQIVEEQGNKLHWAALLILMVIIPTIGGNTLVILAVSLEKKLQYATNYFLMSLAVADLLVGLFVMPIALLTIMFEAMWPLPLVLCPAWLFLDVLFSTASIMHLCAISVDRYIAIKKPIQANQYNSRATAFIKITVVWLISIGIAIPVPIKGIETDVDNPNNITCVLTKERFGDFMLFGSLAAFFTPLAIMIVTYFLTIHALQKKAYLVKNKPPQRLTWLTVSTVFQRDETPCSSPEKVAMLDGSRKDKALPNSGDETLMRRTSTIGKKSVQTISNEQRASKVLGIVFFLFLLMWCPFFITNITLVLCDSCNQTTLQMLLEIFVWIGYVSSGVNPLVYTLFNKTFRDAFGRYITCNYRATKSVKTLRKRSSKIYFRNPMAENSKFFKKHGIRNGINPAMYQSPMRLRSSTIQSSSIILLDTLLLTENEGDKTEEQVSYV
Chain of 5-HT4 receptor (Q13639 whole entry): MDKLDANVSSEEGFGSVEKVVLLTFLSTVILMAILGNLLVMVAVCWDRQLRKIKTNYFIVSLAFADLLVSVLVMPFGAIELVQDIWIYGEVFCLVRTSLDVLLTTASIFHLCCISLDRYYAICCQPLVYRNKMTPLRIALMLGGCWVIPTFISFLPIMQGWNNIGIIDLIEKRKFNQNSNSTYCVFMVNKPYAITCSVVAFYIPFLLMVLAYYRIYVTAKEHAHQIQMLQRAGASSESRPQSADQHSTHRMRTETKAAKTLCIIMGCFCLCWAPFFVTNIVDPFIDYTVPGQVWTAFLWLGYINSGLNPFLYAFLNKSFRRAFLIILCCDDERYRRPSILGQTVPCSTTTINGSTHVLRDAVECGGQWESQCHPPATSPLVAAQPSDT
Chain of D2 receptor (P14416 whole entry): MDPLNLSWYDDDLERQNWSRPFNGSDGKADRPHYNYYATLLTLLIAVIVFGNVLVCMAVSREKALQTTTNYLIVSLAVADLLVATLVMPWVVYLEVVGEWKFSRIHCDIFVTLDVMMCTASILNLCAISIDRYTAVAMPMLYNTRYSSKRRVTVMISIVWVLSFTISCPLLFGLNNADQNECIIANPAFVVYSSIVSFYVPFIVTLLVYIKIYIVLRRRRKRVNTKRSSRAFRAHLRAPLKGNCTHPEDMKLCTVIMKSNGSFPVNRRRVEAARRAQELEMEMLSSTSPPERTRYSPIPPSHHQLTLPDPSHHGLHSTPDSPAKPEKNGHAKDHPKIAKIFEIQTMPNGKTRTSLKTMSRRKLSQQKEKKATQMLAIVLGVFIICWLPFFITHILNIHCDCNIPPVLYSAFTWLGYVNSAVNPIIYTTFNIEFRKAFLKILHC
Chain of 5-HT1B receptor (P28222 whole entry): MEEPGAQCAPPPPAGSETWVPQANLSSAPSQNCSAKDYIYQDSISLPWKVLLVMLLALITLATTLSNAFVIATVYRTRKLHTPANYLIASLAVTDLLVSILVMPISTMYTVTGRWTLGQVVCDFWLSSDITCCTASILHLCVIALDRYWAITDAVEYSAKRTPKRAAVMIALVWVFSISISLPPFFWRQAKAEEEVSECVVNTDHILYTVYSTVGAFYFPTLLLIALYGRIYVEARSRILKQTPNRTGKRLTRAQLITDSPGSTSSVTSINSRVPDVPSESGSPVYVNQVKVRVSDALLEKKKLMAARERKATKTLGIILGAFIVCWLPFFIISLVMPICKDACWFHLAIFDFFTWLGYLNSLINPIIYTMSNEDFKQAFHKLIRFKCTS
Chain of 5-HT2A receptor (P28223 whole entry): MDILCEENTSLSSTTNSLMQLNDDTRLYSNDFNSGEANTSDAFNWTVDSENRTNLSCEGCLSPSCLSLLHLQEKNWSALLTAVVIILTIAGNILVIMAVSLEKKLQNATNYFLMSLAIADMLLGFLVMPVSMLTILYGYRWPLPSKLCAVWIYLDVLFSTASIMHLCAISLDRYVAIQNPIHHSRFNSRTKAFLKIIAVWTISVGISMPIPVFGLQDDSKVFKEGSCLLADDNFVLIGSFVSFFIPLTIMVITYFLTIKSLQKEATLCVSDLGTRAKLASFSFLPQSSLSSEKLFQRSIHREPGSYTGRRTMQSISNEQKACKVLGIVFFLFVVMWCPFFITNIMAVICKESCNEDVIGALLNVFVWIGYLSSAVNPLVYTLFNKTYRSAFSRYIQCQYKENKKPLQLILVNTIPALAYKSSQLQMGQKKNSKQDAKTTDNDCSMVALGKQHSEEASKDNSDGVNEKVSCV
Chain of 5-HT6 receptor (P50406 whole entry): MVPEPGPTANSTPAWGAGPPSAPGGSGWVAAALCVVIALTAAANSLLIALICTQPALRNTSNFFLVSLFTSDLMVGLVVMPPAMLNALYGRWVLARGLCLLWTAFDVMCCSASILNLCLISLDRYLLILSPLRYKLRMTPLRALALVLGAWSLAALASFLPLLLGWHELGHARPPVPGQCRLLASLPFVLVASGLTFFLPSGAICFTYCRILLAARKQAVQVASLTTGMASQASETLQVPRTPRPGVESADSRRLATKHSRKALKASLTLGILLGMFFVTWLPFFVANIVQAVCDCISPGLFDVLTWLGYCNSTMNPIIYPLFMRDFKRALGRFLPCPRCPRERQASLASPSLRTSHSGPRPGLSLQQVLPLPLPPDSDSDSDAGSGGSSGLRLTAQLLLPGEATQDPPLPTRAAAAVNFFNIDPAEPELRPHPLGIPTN

For `Cl.NC(N)=NC(=O)c1ccc2c(c1)C1(CCCO1)c1ccccc1-2` (racemic) [Preparation 60], the “leakage of the protein” value in test [1] is on record as “almost completely suppressed leakage of the protein”.

`COC1(C)c2ccccc2-c2ccc(C(=O)N=C(N)N)cc21.Cl` (racemic) [Preparation 71]: in [1], the “leakage of the protein” value is recorded as “almost completely suppressed leakage of the protein”.

With `CCC1(OC)c2ccccc2-c2ccc(C(=O)N=C(N)N)cc21.Cl` (racemic) [Preparation 72], the “leakage of the protein” value in [1] is on record as “almost completely suppressed leakage of the protein”.

As to `COC1(C)c2cc(C(=O)N=C(N)N)ccc2-c2c(F)cccc21.Cl` (racemic) [Preparation 87], in test [1], the “leakage of the protein” value is “almost completely suppressed leakage of the protein”.

In the case of `Cl.NC(N)=NC(=O)c1ccc2c(c1)C1(CCCO1)c1ccccc1-2` (single isomer, unassigned) [Preparation 60a], in test [1], the “leakage of the protein” value was “almost completely suppressed leakage of the protein”.

For the compound `Cl.NC(N)=NC(=O)c1ccc2c(c1)C1(CCCO1)c1ccccc1-2` (single isomer, unassigned) [Preparation 60b], the “leakage of the protein” value in [1] was “almost completely suppressed leakage of the protein”.

In the case of `CC1(O)c2cc(C(=O)N=C(N)N)ccc2-c2c(F)cccc21.Cl` (single isomer, unassigned) [Preparation 78b], in [1], the “leakage of the protein” value was “almost completely suppressed leakage of the protein”.

By Ki is commonly meant the equilibrium dissociation constant of an inhibitor or competing ligand from its target. A lower Ki goes with a stronger hold on the target. For orientation: IC50 means the point on the concentration scale where inhibition reaches its midpoint. The low end stands for greater potency in that assay, the high end for weaker potency in that assay. Turning to `Cl.NC(N)=NC(=O)c1ccc2c(c1)C(O)c1ccccc1-2` (centres unmarked) [Preparation 3, N-(diaminomethylene)-9-hydroxy-9H-fluorene-2-carboxamide hydrochloride], the values for the Ki in test [2] and in test [3] were 1.8 nM and 17.6 nM, respectively. The IC50 in test [4], in test [5], in test [6], in [7], in test [8] and in test [9] was at least 1000 nM throughout. In addition, the IC50 in test [10], in test [11], in [12] and in test [13] was at least 1000 nM throughout. Moreover, the “amount of leaked protein (fluorescence intensity per mg dura)” value in test [1] is “almost completely suppressed the amount of leaked protein”.

For the compound `NC(N)=NC(=O)c1ccc2c(c1)C(Cl)c1ccccc1-2` (centres unmarked) [Preparation 4, 9-chloro-N-(diaminomethylene)-9H-fluorene-2-carboxamide], in test [3], the Ki was 0.4 to 310 nM.

In the case of `NC(N)=NC(=O)c1ccc2c(c1)C(=NO)c1c(CO)cccc1-2` [Preparation 7, (9EZ)-N-(diaminomethylene)-9-hydroxyimino-8-hydroxymethyl-9H-fluorene-2-carboxamide], the Ki in [3] lay in the range of 0.4 to 310 nM.

Take `CC(C)c1cc(-c2ccc(F)c3ccccc23)nc(N)n1` [RS-127445, 2-amino-4-(4-fluoronaphth-1-yl)-6-isopropylpyrimidine, reference compound]: in test [1], the “amount of leaked protein (fluorescence intensity per mg dura)” value is given as “showed an effect to reduce amount of the leaked protein”. In addition, the “amount of leaked protein versus reference value” in test [1] (dose increased from 3 mg/kg to 10 mg/kg, intraperitoneal) was “did Dot reduced to the reference value”. The “minimum amount showing maximum drug effect in this model” value in [1] (intraperitoneal) was found to be 3 mg/kg. Moreover, in test [14], the 5-HT2B receptor selectivity is on record as 1000 times.

Regarding `CC1CCN(CC[C@H]2CCCN2S(=O)(=O)c2cccc(O)c2)CC1` [SB-269970, (R)-3-(2-(2-(4-methylpiperidin-1-yl)ethyl)pyrrolidine-1-sulfonyl)phenol, reference compound], the “amount of leaked protein versus reference value” in test [1] (dose increased from 3 mg/kg to 30 mg/kg, intraperitoneal) is on record as “did not reduced the amount of leaked protein to the reference value”. For the same compound, the “amount of leaked protein” value in [1] (from 10 mg/kg, intraperitoneal) is listed as “showed the effect”. The “minimum amount showing maximum drug effect in this model” value in test [1] (intraperitoneal) was 10 mg/kg.
